Experimental data reported in paper PMC11224940, “矩阵热转移技术鉴定有机酸类代谢物的结合蛋白质” (Chinese Journal of Chromatography, 2024).

Molecular target: T1, FH (富马酸脱氢酶) (Homo sapiens, UniProt P07954)
T1 construct: endogenous protein in desalted HeLa cell lysate, native, no tag
T1 sequence (P07954 45-510): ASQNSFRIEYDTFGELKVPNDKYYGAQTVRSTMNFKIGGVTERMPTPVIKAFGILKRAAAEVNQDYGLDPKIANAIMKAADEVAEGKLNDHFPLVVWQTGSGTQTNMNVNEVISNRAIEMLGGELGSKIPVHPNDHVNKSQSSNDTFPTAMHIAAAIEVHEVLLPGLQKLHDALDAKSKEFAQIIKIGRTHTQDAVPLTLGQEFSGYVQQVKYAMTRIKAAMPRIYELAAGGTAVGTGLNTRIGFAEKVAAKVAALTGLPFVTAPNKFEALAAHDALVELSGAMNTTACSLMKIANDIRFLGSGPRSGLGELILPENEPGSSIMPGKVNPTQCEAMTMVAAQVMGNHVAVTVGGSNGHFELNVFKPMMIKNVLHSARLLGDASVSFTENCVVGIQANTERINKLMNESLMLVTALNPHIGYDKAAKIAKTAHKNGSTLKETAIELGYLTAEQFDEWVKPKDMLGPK
Assay: matrix thermal shift assay (mTSA), DIA proteomics, dose-response fit
Assay type: biochemical
Conditions: desalted HeLa lysate in PBS, endogenous metabolites removed, 50 min room temperature, then 52 ℃ 3 min; 0.004-2 mmol/L ligand; thermal stabilisation; only four ligand concentrations; read-out: 亲和力 (EC50)

With O=C(O)/C=C/C(=O)O [富马酸] the EC50 was 548 µM.
